Measurements published in US20250145633A1, “SUBSTITUTED FURANOPYRIMIDINE COMPOUNDS AS PDE1 INHIBITORS” (Dart NeuroScience, LLC, priority 2017, published 2025).

Biological target: human PDE1B enzyme (Homo sapiens (Human), UniProt Q01064)
Experiment: IMAP TR-FRET PDE1B enzymatic assay
Assay type: biochemical
Settings: negative log of half-maximal molar inhibitory concentration, 200 nM FAM-cAMP, values given as bins; for IC50: read-out: PDE1b (pIC50) (converted)
In short: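 Full-length GST-tagged human PDE1B (250 pg/well) in IMAP BSA buffer with 10 U/ml calmodulin and 2.5 mM CaCl2; compound pre-incubated 5 min at room temperature, then 200 nM (final) FAM-cAMP for 30 min. IMAP binding reagent/Tb added, 1 h; TR-FRET 520/490 ratio read. IC50 from sigmoidal dose-response fit.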

| SMILES | IC50 [nM] | PDE1b (pIC50) |
| --- | --- | --- |
| Cc1oc2ncnc(NC3(C)CC3)c2c1C(=O)N1CCOC(c2ccncc2)C1 (centres unmarked) [Example 119, 6-Methyl-N-(1-methylcyclopropyl)-5-[2-(pyridin-4-yl)morpholine-4-carbonyl]furo[2,3-d]pyrimidin-4-amine] | 100 to 1000 |  |
| Cc1oc2ncnc(NC3(C)CC3)c2c1C(=O)N1CCOC(c2cccnc2)C1 (centres unmarked) [Example 120, 6-Methyl-N-(1-methylcyclopropyl)-5-[2-(pyridin-3-yl)morpholine-4-carbonyl]furo[2,3-d]pyrimidin-4-amine] | 100 to 1000 |  |
| Cc1oc2ncnc(NC3(C)CC3)c2c1C(=O)N1CCOC(c2cnn(C)c2)C1 (centres unmarked) [Example 121, 6-Methyl-5-[2-(1-methyl-1H-pyrazol-4-yl)morpholine-4-carbonyl]-N-(1-methylcyclopropyl)furo[2,3-d]pyrimidin-4-amine] | 100 to 1000 |  |
| Cc1oc2ncnc(NC3(C)CC3)c2c1C(=O)N1CCOC(c2ccc(F)cc2)C1 (centres unmarked) [Example 122, 5-[2-(4-Fluorophenyl)morpholine-4-carbonyl]-6-methyl-N-(1-methylcyclopropyl)furo[2,3-d]pyrimidin-4-amine] |  | >8 |
| COc1ccc(C2CN(C(=O)c3c(C)oc4ncnc(NC5(C)CC5)c34)CCO2)cc1 (centres unmarked) [Example 123, 5-[2-(4-Methoxyphenyl)morpholine-4-carbonyl]-6-methyl-N-(1-methylcyclopropyl)furo[2,3-d]pyrimidin-4-amine] | 100 to 1000 |  |
| Cc1oc2ncnc(NC3(C)CC3)c2c1C(=O)NC1CC1 [Example 124, N-Cyclopropyl-6-methyl-4-[(1-methylcyclopropyl)amino]furo[2,3-d]pyrimidine-5-carboxamide] | 10 to 100 |  |
| Cc1oc2ncnc(NC3(C)CC3)c2c1C(=O)NCCF [Example 125, N-(2-Fluoroethyl)-6-methyl-4-[(1-methylcyclopropyl)amino]furo[2,3-d]pyrimidine-5-carboxamide] | 10 to 100 |  |
| Cc1oc2ncnc(NC3(C)CC3)c2c1C(=O)N[C@H]1C[C@H](F)C1 [Example 126, 6-Methyl-4-[(1-methylcyclopropyl)amino]-N-[(1R,3R)-3-fluorocyclobutyl]furo[2,3-d]pyrimidine-5-carboxamide] | 10 to 100 |  |
| Cc1oc2ncnc(NC3(C)CC3)c2c1C(=O)N[C@H]1C[C@@H](F)C1 [Example 127, 6-Methyl-4-[(1-methylcyclopropyl)amino]-N-[(1S,3S)-3-fluorocyclobutyl]furo[2,3-d]pyrimidine-5-carboxamide] | 100 to 1000 |  |
| Cc1oc2ncnc(NC3(C)CC3)c2c1C(=O)NC1CC(F)(F)C1 [Example 128, N-(3,3-Difluorocyclobutyl)-6-methyl-4-[(1-methylcyclopropyl)amino]furo[2,3-d]pyrimidine-5-carboxamide] | 100 to 1000 |  |
| Cc1oc2ncnc(NC3(C)CC3)c2c1C(=O)NC1(C2CC2)CCOCC1 [Example 129, N-(4-Cyclopropyloxan-4-yl)-6-methyl-4-[(1-methylcyclopropyl)amino]furo[2,3-d]pyrimidine-5-carboxamide] | 10 to 100 |  |
| Cc1oc2ncnc(NC3(C)CC3)c2c1C(=O)NC1(c2ccccc2)COC1 [Example 130, 6-Methyl-4-[(1-methylcyclopropyl)amino]-N-(3-phenyloxetan-3-yl)furo[2,3-d]pyrimidine-5-carboxamide] | 10 to 100 |  |
| Cc1oc2ncnc(NC3(C)CC3)c2c1C(=O)N1CCC(c2ccc(C(F)F)cc2)C1 (centres unmarked) [Example 131, 5-{3-[4-(Difluoromethyl)phenyl]pyrrolidine-1-carbonyl}-6-methyl-N-(1-methylcyclopropyl)furo[2,3-d]pyrimidin-4-amine] |  | >8 |
| Cc1oc2ncnc(NC3(C)CC3)c2c1C(=O)N1CCC(F)(c2ccccc2)C1 (centres unmarked) [Example 132, 5-(3-Fluoro-3-phenylpyrrolidine-1-carbonyl)-6-methyl-N-(1-methylcyclopropyl)furo[2,3-d]pyrimidin-4-amine] |  | >8 |
